Counter-ions that a name gives are not always drawn.

The target of this assay is T1, MAPKAPK2 enzyme (HIS-MK2, Invitrogen PV4019) (Homo sapiens, UniProt P49137).
T1 construct: His; purchased Invitrogen PV4019
As to the kind of experiment: Alternative MAPKAPK2 assay (Caliper microfluidic mobility shift, HSP27-peptide). The class given is biochemical. Particulars: HIS-MK2 0.013 nM, ATP 10 μM, 60 min at 30° C.

T1 sequence (P49137 whole entry): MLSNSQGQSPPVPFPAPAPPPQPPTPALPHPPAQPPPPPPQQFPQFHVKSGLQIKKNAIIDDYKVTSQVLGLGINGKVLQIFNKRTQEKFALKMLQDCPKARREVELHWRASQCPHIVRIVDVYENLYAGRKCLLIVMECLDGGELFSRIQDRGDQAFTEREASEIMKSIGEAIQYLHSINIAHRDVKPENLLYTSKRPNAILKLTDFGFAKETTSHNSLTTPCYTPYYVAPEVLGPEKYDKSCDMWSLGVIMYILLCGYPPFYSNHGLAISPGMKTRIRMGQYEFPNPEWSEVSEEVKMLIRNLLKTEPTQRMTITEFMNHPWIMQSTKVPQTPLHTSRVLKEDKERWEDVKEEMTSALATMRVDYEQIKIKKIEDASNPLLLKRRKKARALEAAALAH

One may read the IC50 as the concentration that inhibits the measured activity by half. On to `O=C1NCC2(CNC2)c2[nH]c3c(c21)CCc1cnc(-c2ccc(F)nc2)cc1-3` [Example 160, 2-(3-Aminomethyl-azetidin-3-yl)-8-(6-fluoro-pyridin-3-yl)-4,5-dihydro-1H-pyrrolo[2,3-f]isoquinoline-3-carboxylic acid lactam hydrochloride], for which the IC50 was less than 3 nM.

As to `CN1CC2(CNC(=O)c3c4c(n(C)c32)-c2cc(-c3ccc(F)nc3)ncc2CC4)C1` [Example 161, 2-(3-Aminomethyl-1-methyl-azetidin-3-yl)-8-(6-fluoro-pyridin-3-yl)-1-methyl-4,5-dihydro-1H-pyrrolo[2,3-f]isoquinoline-3-carboxylic acid lactam], the IC50 turned out to be 86 nM.

`Cn1c2c(c3c1C1(CNC1)CNC3=O)CCc1cnc(-c3ccc(F)nc3)cc1-2` [Example 162, 2-(3-Aminomethyl-azetidin-3-yl)-8-(6-fluoro-pyridin-3-yl)-1-methyl-4,5-dihydro-1H-pyrrolo[2,3-f]isoquinoline-3-carboxylic acid lactam hydrochloride]: the IC50 came to 20 nM.

With `COc1ccc(-c2cc3c(cn2)CCc2c4c(n(C)c2-3)C2(CNC2)CNC4=O)cc1` [Example 163, 2-(3-Aminomethyl-azetidin-3-yl)-8-(4-methoxy-phenyl)-1-methyl-4,5-dihydro-1H-pyrrolo[2,3-f]isoquinoline-3-carboxylic acid lactam hydrochloride], the IC50 worked out at 6 nM.

`COc1ccc(-c2cc3c(cn2)CCc2c4c(n(C)c2-3)C2(CNC4=O)CN(C)C2)cc1` [Example 164, 2-(3-Aminomethyl-1-methyl-azetidin-3-yl)-8-(4-methoxy-phenyl)-1-methyl-4,5-dihydro-1H-pyrrolo[2,3-f]isoquinoline-3-carboxylic acid lactam]: the IC50 stood at 22 nM.

Regarding `COc1ccc(-c2cc3c(cn2)CCc2c-3[nH]c3c2C(=O)NCC32CNC2)cc1` [Example 165, 2-(3-Aminomethyl-azetidin-3-yl)-8-(4-methoxy-phenyl)-4,5-dihydro-1H-pyrrolo[2,3-f]isoquinoline-3-carboxylic acid lactam hydrochloride], the IC50 is less than 3 nM.

For the molecule `O=C1NC2(CC2)C2(CNC2)c2[nH]c3c(c21)CCc1cnc(-c2cccc(F)c2)cc1-3` [Example 180, 2-[3-(1-Amino-cyclopropyl)-azetidin-3-yl]-8-(3-fluoro-phenyl)-4,5-dihydro-1H-pyrrolo[2,3-f]isoquinoline-3-carboxylic acid lactam hydrochloride], the IC50 was less than 3 nM.

For `COCCN1CC2(CNC(=O)c3c2[nH]c2c3CCc3cnc(-c4cccc(Cl)c4)cc3-2)C1` [Example 181, 2-[3-Aminomethyl-1-(2-methoxy-ethyl)-azetidin-3-yl]-8-(3-chloro-phenyl)-4,5-dihydro-1H-pyrrolo[2,3-f]isoquinoline-3-carboxylic acid lactam], the IC50 turned out to be 79 nM.

Consider `CC(C)Oc1ccc(-c2cc3c(cn2)CCc2c4c(n(C)c2-3)C2(CNC4=O)CN(C)C2)cn1` [Example 183, 2-(3-Aminomethyl-1-methyl-azetidin-3-yl)-8-(6-isopropoxy-pyridin-3-yl)-1-methyl-4,5-dihydro-1H-pyrrolo[2,3-f]isoquinoline-3-carboxylic acid lactam], for which the IC50 worked out at 9 nM.

As for `CC(C)Oc1ccc(-c2cc3c(cn2)CCc2c4c(n(C)c2-3)C2(CNC2)CNC4=O)cn1` [Example 184, 2-(3-Aminomethyl-azetidin-3-yl)-8-(6-isopropoxy-pyridin-3-yl)-1-methyl-4,5-dihydro-1H-pyrrolo[2,3-f]isoquinoline-3-carboxylic acid lactam hydrochloride], the IC50 came to 9 nM.

`CC(C)Oc1ccc(-c2cc3c(cn2)CCc2c-3[nH]c3c2C(=O)NCC32CNC2)cn1` [Example 186, 2-(3-Aminomethyl-azetidin-3-yl)-8-(6-isopropoxy-pyridin-3-yl)-4,5-dihydro-1H-pyrrolo[2,3-f]isoquinoline-3-carboxylic acid lactam hydrochloride]: the IC50 is less than 3 nM.

In the case of `CN1CC2(CNC(=O)c3c2[nH]c2c3CCc3cnc(-c4cccc(Cl)c4)cc3-2)C1` [Example 188, 2-[3-Aminomethyl-1-methyl-azetidin-3-yl]-8-(3-chloro-phenyl)-4,5-dihydro-1H-pyrrolo[2,3-f]isoquinoline-3-carboxylic acid lactam], the IC50 was less than 3 nM.

As for `Cn1c2c(c3c1C1(CNC1)CNC3=O)CCc1cnc(-c3cccc(Cl)c3)cc1-2` [Example 189, 2-[3-Aminomethyl-azetidin-3-yl]-8-(3-chloro-phenyl)-1-methyl-4,5-dihydro-1H-pyrrolo[2,3-f]isoquinoline-3-carboxylic acid lactam hydrochloride], the IC50 stood at 6 nM.

Consider `CN1CC2(CNC(=O)c3c4c(n(C)c32)-c2cc(-c3cccc(Cl)c3)ncc2CC4)C1` [Example 190, 2-[3-Aminomethyl-1-methyl-azetidin-3-yl]-8-(3-chloro-phenyl)-1-methyl-4,5-dihydro-1H-pyrrolo[2,3-f]isoquinoline-3-carboxylic acid lactam], for which the IC50 came to 7 nM.

Regarding `Cc1ccc(-c2cc3c(cn2)CCc2c-3[nH]c3c2C(=O)NC2(CC2)C32CC2)cn1` [Example 193, 2-(1′-Amino-bicyclopropyl-1-yl)-8-(6-methyl-pyridin-3-yl)-4,5-dihydro-1H-pyrrolo[2,3-f]isoquinoline-3-carboxylic acid lactam], the IC50 is 12 nM.

As to `COc1ncc(-c2cc3c(cn2)CCc2c-3[nH]c3c2C(=O)NC2(CC2)C32CC2)cc1F` [Example 194, 2-(1′-Amino-bicyclopropyl-1-yl)-8-(5-fluoro-6-methoxy-pyridin-3-yl)-4,5-dihydro-1H-pyrrolo[2,3-f]isoquinoline-3-carboxylic acid lactam], the IC50 was determined as 42 nM.

For the molecule `CN(C)c1ccc(-c2cc3c(cn2)CCc2c-3[nH]c3c2C(=O)NC2(CC2)C32CC2)cn1` [Example 197, 2-(1′-Amino-bicyclopropyl-1-yl)-8-(6-dimethylamino-pyridin-3-yl)-4,5-dihydro-1H-pyrrolo[2,3-f]isoquinoline-3-carboxylic acid lactam], the IC50 is 38 nM.

`O=C1NC2(CC2)C2(CC2)c2[nH]c3c(c21)CCc1cnc(-c2ccc(OC4CCOCC4)nc2)cc1-3` [Example 198, 2-(1′-Amino-bicyclopropyl-1-yl)-8-[6-(tetrahydro-pyran-4-yloxy)-pyridin-3-yl]-4,5-dihydro-1H-pyrrolo[2,3-f]isoquinoline-3-carboxylic acid lactam]: the IC50 came to 20 nM.

Regarding `COc1ccc(-c2cc3c(cn2)CCc2c-3[nH]c3c2C(=O)NC2(CC2)C32CC2)cn1` [Example 199, 2-(1′-Amino-bicyclopropyl-1-yl)-8-[6-methoxy-pyridin-3-yl]-4,5-dihydro-1H-pyrrolo[2,3-f]isoquinoline-3-carboxylic acid lactam], the IC50 stood at 23 nM.

As to `CC(C)Oc1ccc(-c2cc3c(cn2)CCc2c-3[nH]c3c2C(=O)NC2(CC2)C32CC2)cn1` [Example 200, 2-(1′-Amino-bicyclopropyl-1-yl)-8-[6-isopropoxy-pyridin-3-yl]-4,5-dihydro-1H-pyrrolo[2,3-f]isoquinoline-3-carboxylic acid lactam], the IC50 is 37 nM.

On to `Cn1c2c(c3c1C1(CNC1)CNC3=O)CCc1cnc(-c3cccc(F)c3)nc1-2` [Example 203, 2-(3-Aminomethyl-azetidin-3-yl)-8-(3-fluoro-phenyl)-1-methyl-4,5-dihydro-1H-1,7,9-triaza-cyclopenta[a]naphthalene-3-carboxylic acid lactam hydrochloride], for which the IC50 is 34 nM.

Take `CN1CC2(CNC(=O)c3c4c(n(C)c32)-c2nc(-c3cccc(F)c3)ncc2CC4)C1` [Example 204, 2-(3-Aminomethyl-1-methyl-azetidin-3-yl)-8-(3-fluoro-phenyl)-1-methyl-4,5-dihydro-1H-1,7,9-triaza-cyclopenta[a]naphthalene-3-carboxylic acid lactam]: the IC50 turned out to be 22 nM.

With `O=C1NCC2(CNC2)c2[nH]c3c(c21)CCc1cnc(-c2ccc(F)nc2F)cc1-3` [Example 205, 2-(3-Aminomethyl-azetidin-3-yl)-8-(2,6-difluoro-pyridin-3-yl)-4,5-dihydro-1H-pyrrolo[2,3-f]isoquinoline-3-carboxylic acid lactam hydrochloride], the IC50 is less than 3 nM.

Regarding `COc1ccc(-c2ncc3c(n2)-c2[nH]c4c(c2CC3)C(=O)NCC42CNC2)cc1` [Example 206, 2-(3-Aminomethyl-azetidin-3-yl)-8-(4-methoxy-phenyl)-4,5-dihydro-1H-1,7,9-triaza-cyclopenta[a]naphthalene-3-carboxylic acid lactam hydrochloride], the IC50 is less than 3 nM.

Take `CN1CC2(C1)c1[nH]c3c(c1C(=O)NC21CC1)CCc1cnc(-c2cccc(F)c2)cc1-3` [Example 208, 2-[3-(1-Amino-cyclopropyl)-1-methyl-azetidin-3-yl]-8-(3-fluoro-phenyl)-4,5-dihydro-1H-pyrrolo[2,3-f]isoquinoline-3-carboxylic acid lactam]: the IC50 was less than 3 nM.

Regarding `Cn1c2c(c3c1C1(CNC1)C1(CC1)NC3=O)CCc1cnc(-c3cccc(F)c3)cc1-2` [Example 209, 2-[3-(1-Amino-cyclopropyl)-azetidin-3-yl]-8-(3-fluoro-phenyl)-1-methyl-4,5-dihydro-1H-pyrrolo[2,3-f]isoquinoline-3-carboxylic acid lactam hydrochloride], the IC50 was 3 nM.

With `CN1CC2(C1)c1c(c3c(n1C)-c1cc(-c4cccc(F)c4)ncc1CC3)C(=O)NC21CC1` [Example 210, 2-[3-(1-Amino-cyclopropyl)-1-methyl-azetidin-3-yl]-8-(3-fluoro-phenyl)-1-methyl-4,5-dihydro-1H-pyrrolo[2,3-f]isoquinoline-3-carboxylic acid lactam], the IC50 came out at 45 nM.

As for `O=C1NC2(CC2)C2(CNC2)c2[nH]c3c(c21)CCc1cnc(-c2ccc(C(F)(F)F)nc2)cc1-3` [Example 211, 2-[3-(1-Amino-cyclopropyl)-azetidin-3-yl]-8-(6-trifluoromethyl-pyridin-3-yl)-4,5-dihydro-1H-pyrrolo[2,3-f]isoquinoline-3-carboxylic acid lactam hydrochloride], the IC50 is less than 3 nM.

For the origin of these results see US7838674B2, “Tetracyclic lactame derivatives” (Novartis AG, priority 2007, dated 2010).
